From paper PMC12406255, “Engineering Peptide Modulators for T‑Cell Migration by Structural Scaffold Matching” (Journal of Medicinal Chemistry, 2025)
Where two headings read alike, the source gives them in different places. Positions of bridges follow the written chain, without caps; N, C: chain ends. Non-standard residues stand in square brackets, D forms with d. Residues, ends and D or L forms follow the SMILES beside them. Nle = CCCC[C@H](N)C(=O)O

Columns and labels:
Assay type in all cases: cell-based, human
[1] = system: CD3+ lymphocytes; test: cells; conditions: for % Inhibition of cell migration compared to control, CD3+: normalized to untreated control, mean ± SEM of 4-6 experiments
Method: 1 Transwell-based migration assay to study lymphocyte transendothelial migration. (A) The general principle of the transwell migration assay is depicted. Endothelial cells (EC) are seeded in transwell inserts and are incubated for 2 days to form an EC monolayer. On the day before the assay, the ECs are cytokine-stimulated to induce the expression of adhesion molecules. In the migration assay, human peripheral blood mononuclear cells (PBMC) are placed into the donor compartment of the transwell setup. After 4 h of incubation time, the migrated cells are harvested from the receiver compartment, stained with fluorescent antibodies and counted using flow cytometry. (B) PBMCs were preincubated with S1P for 1.5 h and then transferred into the donor compartment on top of the EC monolayer. […] Data are shown as mean ± SD of 3 to 5 independent experiments.
(§1) Transwell migration assays were performed similarly as published previously. HMEC-1 cells were seeded at a density of 75,000 cells per well in transwell inserts. Three days after cell seeding, the medium was changed, and the cells were stimulated with 100 ng/mL TNF-α and 20 ng/mL IFN-γ for 16–18 h. On the day of the assay, cells were washed with migration medium (serum-free RPMI medium supplemented with 0.1% BSA) to remove residual cytokines and starved for at least 1 h at 37 °C in migration medium. PBMC were starved for at least 1.5 h in migration medium before addition to the EC. For S1P and lifitegrast-treated samples, the PBMC were preincubated for at least 1.5 h at 37 °C with the ligands before addition to the EC. Pepitem and other peptides were added onto the EC monolayer and preincubated for 15–30 min at 37 °C before the addition of the PBMC. 200,000 PBMC per well were added directly on top of the EC prestimulated with pepitem or other peptides to reach a final volume of 150 μL in the donor compartments. The receiver compartments of the wells were filled with 600 μL RPMI with 20% FBS. After 4 h of migration at 37 °C, the receiver compartment with the migrated cells was collected. The migrated cells were stained with the indicated antibodies: CD3-APC (clone: OKT3, lot: B400127), CD4-PE (clone: OKT4. lot: B379180), CD8-FITC (clone: HIT8a, lot: B370193) from Biolegend and CD3-VioGreen (clone: REA613, lot: 5240502518), CD45RO-FITC (clone: REA611, lot: 5240502519), CD4-PerCP-Vio700 (clone: REA623, lot: 5240506702), CXCR3 PE-Vio615 (clone: REA232, lot: 5240506722), CD196-APC (clone: REA190, lot: 5240506717), CD8-APC-Vio770 (clone: REA734, lot: 5240303993) and CD45RO-PEVio616 (clone: REA611, lot: 5231102514) from Miltenyi Biotec (Bergisch Gladbach, Germany) and counted using precision counting beads (Biolegend) on a CytoflexS flow cytometer (BeckmanCoulter). Data was analyzed using CytExpert (Version 2.4). T cells were gated as CD3^+ cells, T cell subsets were gated as CD4^+ (CD3^+, CD4^+), CD8^+ (CD3^+, CD8^+), memory CD4^+ (CD3^+, CD4^+, CD45RO^+), memory CD8^+ (CD3^+, CD8^+, CD45RO^+) and Th1 cells (CD3^+, CD4^+, CXCR3^+, CCR6^–).
(§2) Data were analyzed using GraphPad Prism software. EC50 values were calculated by three-parameter nonlinear regression analysis. For this, the data points were normalized to the number of migrated cells in untreated (buffer) control samples (100%), and the regression was fitted with the top constraint to 100 and the slope fixed to 1. Statistical significance is indicated in graphs as n.s. not significant, * p < 0.05; ** p < 0.01; *** p < 0.001. The statistical tests used are indicated in the respective figure captions.

[2] = system: CD4+ lymphocytes (CD3+, CD4+); conditions: for % Inhibition of cell migration compared to control, CD4+: normalized to untreated control, mean ± SEM of 4-6 experiments
Method: as §1, §2

[3] = system: CD8+ lymphocytes (CD3+, CD8+); conditions: for % Inhibition of cell migration compared to control, CD8+: normalized to untreated control, mean ± SEM of 4-6 experiments
Method: as §1, §2

[4] = system: memory CD4+ cells (CD3+, CD4+, CD45RO+); conditions: for % Inhibition of cell migration compared to control, Memory CD4+: normalized to untreated control, mean ± SEM of 4-6 experiments
Method: as §1, §2

[5] = system: memory CD8+ cells (CD3+, CD8+, CD45RO+); conditions: for % Inhibition of cell migration compared to control, Memory CD8+: normalized to untreated control, mean ± SEM of 4-6 experiments
Method: as §1, §2

[6] = from the concentration-response experiment

## CCCC[C@@H]1NC(=O)[C@H](C(C)C)NC(=O)[C@H](CCCCN)NC(=O)[C@@H](NC(=O)[C@H](CCC(N)=O)NC(=O)[C@H](CCC(=O)O)NC(C)=O)CSSC[C@@H](C(=O)N[C@@H](CCC(=O)O)C(=O)N[C@@H](CCCCN)C(N)=O)NC(=O)[C@H](CC(N)=O)NC(=O)[C@H](CC(=O)O)NC(=O)[C@H](CC(C)C)NC(=O)[C@@H]2CSSC[C@H](NC1=O)C(=O)N[C@@H](Cc1ccc(O)cc1)C(=O)N[C@@H](C)C(=O)N[C@@H](CCC(N)=O)C(=O)NCC(=O)N[C@@H](C)C(=O)N[C@@H](CCC(=O)O)C(=O)N[C@@H](CC(C)C)C(=O)N1CCC[C@H]1C(=O)N[C@@H](CCC(=O)O)C(=O)N[C@@H](CC(C)C)C(=O)N[C@@H](CC(C)C)C(=O)N[C@@H](CCCNC(=N)N)C(=O)N[C@@H](CCCNC(=N)N)C(=O)N2 [VhTI-pep 2] (Ac-EQCKV[Nle]CYAQGAELPELLRRCLDNCEK-NH2; disulfide 3-25, 7-21)
[1]; 0.1 μM
  % Inhibition of cell migration compared to control, CD3+: 28.7 ± 6.4%
[1]; 1 μM
  % Inhibition of cell migration compared to control, CD3+: 37.2 ± 6.8%
[1]; EC monolayer preincubated with peptide 15-30 min, healthy-donor PBMC added, 4 h migration, flow cytometry, mean ± SD of 3 to 5 (VhTI-pep 2: 4) independent experiments, read-out: EC50, inhibition of CD3+ lymphocyte migration
  EC50: 10.6 ± 16.5 nM
[1]; [6]
  maximal effect of inhibition of cell migration, CD3+ lymphocytes: 39.3 ± 8.7%
[2]; 0.1 μM
  % Inhibition of cell migration compared to control, CD4+: 34.3 ± 8.0%
[2]; 1 μM
  % Inhibition of cell migration compared to control, CD4+: 33.2 ± 6.1%
[2]; EC monolayer pretreated with peptide, healthy-donor PBMC, 4 h, mean ± SD, 4 independent measurements, read-out: EC50, inhibition of CD4+ cell migration
  EC50: 10.5 ± 15.9 nM
[2]; [6]
  maximal effect of inhibition of cell migration, CD4+ lymphocytes: 39.9 ± 12.5%
[3]; 0.1 μM
  % Inhibition of cell migration compared to control, CD8+: 37.0 ± 6.4%
[3]; 1 μM
  % Inhibition of cell migration compared to control, CD8+: 41.7 ± 8.5%
[3]; EC monolayer pretreated with peptide, healthy-donor PBMC, 4 h, mean ± SD, 4 independent measurements, read-out: EC50, inhibition of CD8+ cell migration
  EC50: 7.7 ± 11.4 nM
[3]; [6]
  maximal effect of inhibition of cell migration, CD8+ lymphocytes: 40.0 ± 2.8%
[4]; 0.1 μM
  % Inhibition of cell migration compared to control, Memory CD4+: 34.4 ± 16.7%
[4]; 1 μM
  % Inhibition of cell migration compared to control, Memory CD4+: 31.5 ± 10.4%
[4]; EC monolayer pretreated with peptide, healthy-donor PBMC, 4 h, mean ± SD, 4 independent measurements, read-out: EC50, inhibition of memory CD4+ cell migration
  EC50: 9.8 ± 16.5 nM
[5]; 0.1 μM
  % Inhibition of cell migration compared to control, Memory CD8+: 23.0 ± 6.9%
[5]; 1 μM
  % Inhibition of cell migration compared to control, Memory CD8+: 21.9 ± 8.1%
[5]; EC monolayer pretreated with peptide, healthy-donor PBMC, 4 h, mean ± SD, 4 independent measurements, read-out: EC50, inhibition of memory CD8+ cell migration
  EC50: 6.3 ± 9.7 nM
